According to US7101906B2, “2,3,4-substituted cyclopentanones as therapeutic agents” (Allergan, Inc., priority 2004, dated 2006):

How the values were obtained:
Format in all cases: in vivo
[1] = test system: cynomolgus monkeys; test: Intraocular pressure in cynomolgus monkeys; conditions: monkey, 0.03% topical, single dose, 2-24 h
Method: (§1) Intraocular pressure studies in dogs involved pneumatonometry performed in conscious, Beagle dogs of both sexes (10–15 kg). The animals remained conscious throughout the study and were gently restrained by hand. Drugs were administered topically to one eye as a 25 μL volume drop, the other eye received 25 μL vehicle (0.1% polysorbate 80:10 mM TRIS) as a control. Proparacaine (0.1%) was used for corneal anesthesia during tonometry.
An analogous procedure was carried out with cynomolgus monkeys with measurements at 2, 4, 6, and 24 hours after a single dose.

[2] = test system: Beagle dogs; test: Intraocular pressure in dogs (pneumatonometry); conditions: dog, 0.03% topical 25 μL drop to one eye, 5 day study
Method: as §1
Intraocular pressure was determined just before drug administration and at 2, 4 and 6 hr thereafter on each day of the 5 day study. Drug was administered immediately after the first IOP reading.

[3] = test system: Beagle dogs; test: Ocular surface hyperemia in dogs; conditions: dog, 0.03% topical; score 0.5 trace, 1 mild, 2 moderate, 3 severe
Method: Ocular surface hyperemia was visually assessed and scored according to a system typically used clinically.
Ocular surface hyperemia was evaluated at the same time points as intraocular pressure measurement. It should be noted that untreated dog eyes frequently have a pink/red tone. Thus, values of trace or even mild are not necessarily out of the normal range.

CC(C)OC(=O)CCC/C=C\C[C@H]1C(=O)CC[C@@H]1/C=C/C(O)CCc1sc2ccccc2c1Cl (single isomer, unassigned) [Compound 16b]
Max. ΔIOP (mm Hg) [1]: −3.4 mm Hg
Max. ΔIOP (mm Hg) [2]: −5.7 mm Hg
Max hyperemia [3]: 0.9

CC(C)OC(=O)CCC/C=C\C[C@H]1C(=O)CC[C@@H]1/C=C/C(O)CCc1sc2ccccc2c1Cl (single isomer, unassigned) [Compound 16c]
Max. ΔIOP (mm Hg) [1]: −7.8 mm Hg
Max. ΔIOP (mm Hg) [2]: −4.8 mm Hg
Max hyperemia [3]: 1.0
